Experiment [1] concerns the target T1, Serine/threonine-protein kinase TAO3 (Homo sapiens) (UniProt Q9H2K8).
T1 sequence (whole entry): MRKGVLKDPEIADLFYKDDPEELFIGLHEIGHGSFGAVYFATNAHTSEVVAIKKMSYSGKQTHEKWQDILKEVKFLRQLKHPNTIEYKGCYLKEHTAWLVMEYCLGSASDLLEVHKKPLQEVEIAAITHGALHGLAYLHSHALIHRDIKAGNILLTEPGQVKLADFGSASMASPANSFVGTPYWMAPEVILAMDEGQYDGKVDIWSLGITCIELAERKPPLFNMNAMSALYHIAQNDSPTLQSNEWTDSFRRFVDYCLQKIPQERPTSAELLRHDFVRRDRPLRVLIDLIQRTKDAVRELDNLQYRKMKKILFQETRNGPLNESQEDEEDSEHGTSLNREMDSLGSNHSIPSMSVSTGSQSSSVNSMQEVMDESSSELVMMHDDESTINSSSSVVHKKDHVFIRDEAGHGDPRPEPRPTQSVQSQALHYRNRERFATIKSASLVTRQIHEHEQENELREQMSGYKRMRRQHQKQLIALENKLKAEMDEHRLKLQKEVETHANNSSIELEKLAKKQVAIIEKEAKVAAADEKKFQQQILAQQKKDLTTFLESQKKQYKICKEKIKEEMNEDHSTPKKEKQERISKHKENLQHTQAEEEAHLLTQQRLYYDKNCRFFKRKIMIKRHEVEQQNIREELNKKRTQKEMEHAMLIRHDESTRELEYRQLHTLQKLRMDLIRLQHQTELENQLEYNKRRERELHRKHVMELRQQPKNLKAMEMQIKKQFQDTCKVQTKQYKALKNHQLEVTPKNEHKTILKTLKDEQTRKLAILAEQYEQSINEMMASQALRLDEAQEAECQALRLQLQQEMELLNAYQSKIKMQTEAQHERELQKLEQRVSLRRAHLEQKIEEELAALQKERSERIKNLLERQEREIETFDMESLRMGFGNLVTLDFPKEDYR
In words: Selectivity interaction (LanthaScreen Eu Kinase Binding Assay) EUB0001632a TAOK3. To be noted: at 10 µM. (In general: TR-FRET usually uses a lanthanide donor and a delayed reading to cut background.)

Experiment [2] deals with T2, Serine/threonine-protein kinase BRSK1 (Homo sapiens) (UniProt Q8TDC3).
T2 sequence (whole entry): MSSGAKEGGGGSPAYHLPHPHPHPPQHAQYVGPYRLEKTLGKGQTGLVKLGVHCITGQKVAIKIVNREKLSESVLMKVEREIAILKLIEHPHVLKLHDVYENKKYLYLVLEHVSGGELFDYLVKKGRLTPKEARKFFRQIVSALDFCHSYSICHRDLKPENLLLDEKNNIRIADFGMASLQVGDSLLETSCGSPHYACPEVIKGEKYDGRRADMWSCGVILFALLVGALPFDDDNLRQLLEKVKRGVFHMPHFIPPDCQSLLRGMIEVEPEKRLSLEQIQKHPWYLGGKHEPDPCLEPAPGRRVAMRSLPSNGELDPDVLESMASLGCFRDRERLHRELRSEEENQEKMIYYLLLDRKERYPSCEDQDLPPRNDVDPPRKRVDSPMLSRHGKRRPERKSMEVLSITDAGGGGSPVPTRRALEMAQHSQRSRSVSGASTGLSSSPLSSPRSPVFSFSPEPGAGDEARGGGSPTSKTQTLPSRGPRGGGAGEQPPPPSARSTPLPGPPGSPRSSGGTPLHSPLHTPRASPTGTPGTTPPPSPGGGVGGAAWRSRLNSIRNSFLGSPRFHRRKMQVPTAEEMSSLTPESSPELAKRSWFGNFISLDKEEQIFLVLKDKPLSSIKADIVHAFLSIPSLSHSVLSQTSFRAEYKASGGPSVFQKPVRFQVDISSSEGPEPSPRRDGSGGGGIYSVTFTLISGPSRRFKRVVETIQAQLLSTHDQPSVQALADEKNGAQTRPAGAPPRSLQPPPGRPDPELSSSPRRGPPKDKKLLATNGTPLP
The experiment can be described thus: Selectivity interaction (Kinase panel (Z-LYTE Assay)) EUB0001632a BRSK1. To be noted: at 10 µM.

The target in experiment [3] is Homeodomain-interacting protein kinase 3 (Homo sapiens, UniProt Q9H422). In words: Selectivity interaction (KinomeScan (DiscoverX)) EUB0000607a HIPK3. To be noted: at 10 µM.
Sequence of Homeodomain-interacting protein kinase 3 (Q9H422 whole entry, looked up): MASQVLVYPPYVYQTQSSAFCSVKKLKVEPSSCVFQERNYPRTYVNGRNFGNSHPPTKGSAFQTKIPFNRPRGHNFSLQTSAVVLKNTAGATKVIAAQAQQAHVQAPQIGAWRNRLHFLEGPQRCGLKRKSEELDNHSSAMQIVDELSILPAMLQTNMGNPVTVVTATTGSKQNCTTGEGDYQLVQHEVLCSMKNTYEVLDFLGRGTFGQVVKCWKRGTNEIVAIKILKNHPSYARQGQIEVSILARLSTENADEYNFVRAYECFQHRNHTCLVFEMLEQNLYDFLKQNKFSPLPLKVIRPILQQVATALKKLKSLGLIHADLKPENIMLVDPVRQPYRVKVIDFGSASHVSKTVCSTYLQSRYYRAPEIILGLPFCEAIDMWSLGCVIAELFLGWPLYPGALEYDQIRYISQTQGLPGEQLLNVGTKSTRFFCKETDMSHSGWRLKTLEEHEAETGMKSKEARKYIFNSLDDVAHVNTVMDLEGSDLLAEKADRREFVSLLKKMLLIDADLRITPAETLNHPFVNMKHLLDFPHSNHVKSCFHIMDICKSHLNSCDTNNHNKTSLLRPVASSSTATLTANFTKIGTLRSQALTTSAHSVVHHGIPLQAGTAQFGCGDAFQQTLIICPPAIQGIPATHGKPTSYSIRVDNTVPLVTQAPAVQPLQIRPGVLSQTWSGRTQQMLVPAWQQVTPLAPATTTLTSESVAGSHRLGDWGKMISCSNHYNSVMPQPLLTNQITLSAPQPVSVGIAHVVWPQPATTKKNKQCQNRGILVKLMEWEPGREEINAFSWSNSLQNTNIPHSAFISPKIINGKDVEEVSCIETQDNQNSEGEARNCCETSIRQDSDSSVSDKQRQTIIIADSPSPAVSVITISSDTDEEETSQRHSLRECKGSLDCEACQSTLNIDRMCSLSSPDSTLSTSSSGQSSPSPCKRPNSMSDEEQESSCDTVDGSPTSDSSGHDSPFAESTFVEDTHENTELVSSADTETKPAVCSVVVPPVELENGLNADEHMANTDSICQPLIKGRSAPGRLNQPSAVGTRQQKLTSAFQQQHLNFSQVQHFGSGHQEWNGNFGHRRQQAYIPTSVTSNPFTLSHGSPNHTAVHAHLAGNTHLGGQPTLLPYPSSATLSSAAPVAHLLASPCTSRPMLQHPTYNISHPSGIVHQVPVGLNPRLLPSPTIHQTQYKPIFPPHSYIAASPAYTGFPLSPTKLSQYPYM
Experiment [4] addresses T3, Serine/threonine-protein kinase ULK3 (Homo sapiens) (UniProt Q6PHR2).
T3 sequence (whole entry): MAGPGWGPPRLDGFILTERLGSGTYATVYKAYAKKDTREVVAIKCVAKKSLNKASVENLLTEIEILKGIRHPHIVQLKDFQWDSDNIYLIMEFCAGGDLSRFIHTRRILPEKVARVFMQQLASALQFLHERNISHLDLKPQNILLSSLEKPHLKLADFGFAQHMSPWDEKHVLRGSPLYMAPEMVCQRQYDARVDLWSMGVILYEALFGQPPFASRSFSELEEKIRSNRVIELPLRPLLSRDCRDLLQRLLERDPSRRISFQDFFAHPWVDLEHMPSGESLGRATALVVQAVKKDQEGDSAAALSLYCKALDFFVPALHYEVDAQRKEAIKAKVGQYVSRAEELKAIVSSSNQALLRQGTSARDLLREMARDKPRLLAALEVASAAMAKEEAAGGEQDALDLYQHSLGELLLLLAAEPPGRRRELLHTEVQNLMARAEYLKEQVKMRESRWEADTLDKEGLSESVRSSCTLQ
In words: Selectivity interaction (ActivX KiNativ screen (kinase selectivity in THP-1 cell lysates)) EUB0000639a ULK3. To be noted: lysate, at 0.01 µM. The class given is subcellular.

For experiment [5], the target named is Serine/threonine-protein kinase pim-3 (Homo sapiens) (UniProt Q86V86). The experiment can be described thus: Selectivity interaction (Kinase panel (DSF assay)) EUB0001489b PIM3.
Experiment [6] is described as follows: Selectivity interaction (KinomeScan (DiscoverX)) EUB0000618a PKNB. The settings on record: at 10 µM.
The target of experiment [7] is T4, Megakaryocyte-associated tyrosine-protein kinase (Homo sapiens) (UniProt P42679).
T4 sequence (whole entry): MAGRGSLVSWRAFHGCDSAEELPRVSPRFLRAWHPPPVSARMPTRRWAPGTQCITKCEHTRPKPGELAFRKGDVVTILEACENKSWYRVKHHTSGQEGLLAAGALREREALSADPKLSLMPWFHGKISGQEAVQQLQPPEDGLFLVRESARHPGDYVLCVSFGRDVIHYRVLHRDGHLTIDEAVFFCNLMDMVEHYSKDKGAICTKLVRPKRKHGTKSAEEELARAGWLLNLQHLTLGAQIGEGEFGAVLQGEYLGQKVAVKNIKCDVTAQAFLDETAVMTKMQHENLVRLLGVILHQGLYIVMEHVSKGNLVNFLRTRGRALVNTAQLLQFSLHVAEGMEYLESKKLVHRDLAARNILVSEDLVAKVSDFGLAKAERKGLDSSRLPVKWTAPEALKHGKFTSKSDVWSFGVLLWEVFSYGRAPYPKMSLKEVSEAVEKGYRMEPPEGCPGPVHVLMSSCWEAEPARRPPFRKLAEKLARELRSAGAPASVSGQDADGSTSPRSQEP
In words: Selectivity interaction (KinomeScan (DiscoverX)) EUB0000618a MATK. To be noted: at 10 µM.

The target of experiment [8] is Serine/threonine-protein kinase PLK1 (Homo sapiens, UniProt P53350). In words: Selectivity interaction (KinomeScan (DiscoverX)) EUB0000618a PLK1. The settings on record: at 10 µM.
Sequence of Serine/threonine-protein kinase PLK1 (P53350 whole entry): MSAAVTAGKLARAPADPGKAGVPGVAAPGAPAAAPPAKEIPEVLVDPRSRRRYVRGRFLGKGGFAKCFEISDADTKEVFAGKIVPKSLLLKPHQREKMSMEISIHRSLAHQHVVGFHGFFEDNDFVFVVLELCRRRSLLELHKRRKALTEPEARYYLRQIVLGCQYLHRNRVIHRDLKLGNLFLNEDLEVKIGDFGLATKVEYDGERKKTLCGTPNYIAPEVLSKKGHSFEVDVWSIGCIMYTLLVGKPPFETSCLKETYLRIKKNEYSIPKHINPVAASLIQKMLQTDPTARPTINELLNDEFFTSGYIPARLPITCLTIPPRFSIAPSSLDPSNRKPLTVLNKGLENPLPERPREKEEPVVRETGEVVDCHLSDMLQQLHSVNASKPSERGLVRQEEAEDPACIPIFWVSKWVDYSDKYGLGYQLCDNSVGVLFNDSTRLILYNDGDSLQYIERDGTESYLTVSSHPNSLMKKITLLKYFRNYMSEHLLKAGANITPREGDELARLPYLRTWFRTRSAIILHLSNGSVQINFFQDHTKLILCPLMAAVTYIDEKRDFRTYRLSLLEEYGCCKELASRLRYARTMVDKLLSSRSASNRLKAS

For `Cn1cc(-n2cnc3c(NCc4nc5cc(Cl)c(Cl)cc5[nH]4)nc(N4CCOCC4)nc32)cn1`, in experiment [1], the % of inhibition was found to be 7.54%. Further, the % of control in experiment [2] stood at 11.9%.
`CNC(=O)Nc1ccc(-c2nc(N3CC4CCC(C3)O4)c3cnn(C4CCC5(CC4)OCCO5)c3n2)cc1` displayed a % of control in experiment [3] of 42%.
For the compound `CC[C@@H]1[C@H](F)C(=O)N[C@@H]1COc1nccc2cc(C(N)=O)c(OC)cc12` [ZIMLOVISERTIB], in experiment [4], the % of inhibition was -8.9%.
As to `CN1CCN(C(=O)c2ccc3cc2OCCOCCNc2ccn4ncc-3c4n2)CC1`, the dTM in experiment [5] worked out at 2.1 K.
On to `O[C@H]1CC[C@H](Nc2ncc3nc(Nc4c(F)cc(F)cc4F)n([C@H]4CCOC4)c3n2)CC1`, for which the values for the % of control in experiment [6], in experiment [7] and in experiment [8] were 92%, 95% and 100%, respectively.
